The record followed here is patent publication US11142524B2, “Substituted-3H-imidazo[4,5-c]pyridine and 1H-pyrrolo[2,3-c]pyridine series of novel Ectonucleotide Pyrophosphatase/Phosphodiesterase-1 (ENPP1) and stimulator for interferon genes (STING) modulators as cancer immunotherapeutics” (Stingray Therapeutics, Inc., priority 2018, dated 2021).

Counter-ions that a name gives are not always drawn. Like-named read-outs stand apart in the source and are kept apart here.

In experiment [1] the target is T1, Recombinant Human ENPP-1 Protein (purified in-house) (Homo sapiens (Human), UniProt P22413). Briefly: ENPP1 Assay (TMP), Example 2. The class given is biochemical. The procedure:
Enzyme: 1 ng/μL Recombinant Human ENPP-1 Protein (purified in-house)—Assay Conc.: 5 ng/well of DMSO in 96-well clear assay plates.
(§1) A ten point serial dilution of drugs was prepared in 10× in assay buffer with the final assay concentrations starting at 10 μM, 3 μM, 1 μM, 0.3 μM . . . 0 μM. A dilution of DMSO was included as a control. The assay plate was set up as follows with each well in duplicate: 75 μL assay buffer+10 μL ENPP1 inhibitor or DMSO Dilutions+10 μL Substrate+5 μL Enzyme (5 ng). Both the enzyme and substrate were added to opposite sides of the well to ensure that there was no interaction until all wells had both components. The plate was then centrifuged gently for 10 seconds, followed by an incubation at 37° C. for 45 minutes. The reaction was quantified by measuring absorbance at 405 nm using the Envision Plate Reader.

Experiment [2] concerns the target T1, Recombinant Human ENPP-1 Protein (purified in-house). The experiment is described as follows: ENPP1 Assay (ATP), Example 2. The experiment is classed as biochemical. On the procedure:
Assay Buffer: 1 mM CaCl2, 0.2 mM ZnCl2, 50 mM Tris, pH 9.0. Substrate: 100 μM Adenosine 5′-triphosphate disodium salt hydrate (Promega: V703A)—Assay Conc.: 10 μM. Enzyme: 1 ng/μL Recombinant Human ENPP-1 Protein (purified in-house)—Assay Conc.: 5 ng/well of DMSO in 96-well white assay plates. Cell Titer Glo (Promega, cat #G7572).
as §1, with “by” for “by an”, “RT” for “37° C.”, “20 minutes. To detect levels of ATP, Cell Titer Glo was added 1:1 to each well and incubated for 10” for “45”, “luminescence” for “absorbance at 405 nm”

The target of experiment [3] is T2, ENPP1 protein (Homo sapiens (Human), UniProt P22413). Briefly: ENPP1 Thermal Shift Assay (Example 1). The experiment is classed as binding. On the procedure: Assay Buffer (1 mM CaCl2, 0.2 mM ZnCl2, 50 mM Tris, pH 9.0) 5000×SYPRO Orange (ThermoFisher cat #S6651) 384-well PCR Plates
Each drug was prepared as a 10× solution in the assay buffer and SYPRO Orange was diluted to 10× concentration in water. Wells were set up in duplicate in a 384-well PCR plate as follows: 14 μL assay buffer, 2 μL ENPP1 Inhibitor or DMSO, 2 μL (0.5 μg) ENPP1 protein. Each well was mixed and incubated on ice for 5 minutes. Post incubation, 2 μL of SYPRO Orange was mixed into each well and followed by a gentle centrifugation. The protein melt reaction was run using ViiA7 software with temperatures beginning at 25° C. and increasing by 0.05° C./s to the maximum temperature of 99° C.
In a 384-well plate, 1.0 μg of ENPP1 protein incubated with 100 μM of the corresponding drug for 5 minutes. Each well exposed to increasing temperatures to determine an unfolding temperature of the protein.

The subject of another experiment is Saos-2 Cells. Briefly: ENPP1 Mineralization Assay. The experiment is classed as cell-based. On the procedure: Saos-2 Cells (ATCC CAT #HTB-85). Culture Medium. 24-well Tissue Culture Plate. Ascorbic Acid, 5 mg/mL (100×). β-Glycerophosphate, 1M (100×). Phosphate Buffered Saline. Alizarin Red, 40 mM pH 4.2. 70% Ethanol. Dye Extraction Reagent, 10% Methanol+10% Acetic Acid
Saos-2 cells were plated at a density of 1.5×10^6 cells/well and allowed to grow to 100% confluency over the following 1-2 days. Once completely confluent, the media was replaced with fresh media supplemented with 1× ascorbic acid, 1× β-glycerophosphate, and varying concentrations of ENPP1 inhibitor (if applicable). The addition of the mineralization components was considered Day 1. On Day 3, the media was gently aspirated with no wash followed by the addition of fresh media, mineralization components, and ENPP1 inhibitor (if applicable). On day 5, the media was gently aspirated and the cells were washed twice with PBS. The cells were then fixed with ice cold 70% ethanol for 1 hour at 4° C. Cells were washed once with PBS and stained with Alizarin Red for 30 minutes at room temperature with gentle rotation. Stained cells were washed three times with water for 10 minutes at room temperature with gentle rotation. After imaging cells, dye extraction reagent was added to each well and incubated for 30 minutes at room temperature. Alizarin red was quantified by measuring absorbance at a wavelength of 405 nm using the Envision.
FIG. 9 depicts a picture of results of a similar SAOS-2 mineralization assay. SAOS-2 cell were cultured in the presence and absence of ENPP1 inhibitor (compound 78, 107-02 or 108) and exposed to mineralization components for 3 days.

Experiment [4] concerns the target T2, ENPP1 protein. The experiment is described as follows: ENPP1 Inhibition Assay (thymidine 5′-monophosphate p-nitrophenol ester substrate). The class given is biochemical. On the procedure:
Assay Buffer: 1 mM CaCl2, 0.2 mM ZnCl2, 50 mM Tris, pH 9.0. Substrate: 8 mM Thymidine 5′-monophosphate p-nitrophenol ester sodium salt (Sigma Cat #T4510). Enzyme: 5 ng/L Recombinant Human ENPP-1 Protein (R&D Cat #6136-EN-010) in DMSO in 96-well clear assay plates
as §1, with “An eight” for “A ten”, “81” for “75”, “DMSO+5” for “DMSO Dilutions+10”, “Substrate+4” for “Substrate+5”, “Enzyme.” for “Enzyme (5 ng).”, “Envision.” for “Envision Plate Reader.”
IC50 values are determined using GraphPad Prism 5 software. The data were entered as an X-Y plot into the software as percent inhibition for each concentration of the drug. The concentration values of the drug were log transformed and the nonlinear regression was carried out using the “sigmoidal dose-response (variable slope)” option within the GraphPad software to model the data and calculate IC50 values. The IC50 values reported are the concentration of drug at which 50% inhibition was reached.

The mark [5] stands for this setting: Table 5, TMP substrate, read-out: ENPP1 (IC50 μM) TMP.
[6] abbreviates: FIG. 5A, TMP substrate, read-out: IC50.
The mark [7] stands for this setting: FIG. 5B, ATP substrate, read-out: IC50.
[8] abbreviates: Table 5, ATP substrate, read-out: ENPP1 (IC50 μM) ATP.

T1 sequence (P22413 whole entry, looked up): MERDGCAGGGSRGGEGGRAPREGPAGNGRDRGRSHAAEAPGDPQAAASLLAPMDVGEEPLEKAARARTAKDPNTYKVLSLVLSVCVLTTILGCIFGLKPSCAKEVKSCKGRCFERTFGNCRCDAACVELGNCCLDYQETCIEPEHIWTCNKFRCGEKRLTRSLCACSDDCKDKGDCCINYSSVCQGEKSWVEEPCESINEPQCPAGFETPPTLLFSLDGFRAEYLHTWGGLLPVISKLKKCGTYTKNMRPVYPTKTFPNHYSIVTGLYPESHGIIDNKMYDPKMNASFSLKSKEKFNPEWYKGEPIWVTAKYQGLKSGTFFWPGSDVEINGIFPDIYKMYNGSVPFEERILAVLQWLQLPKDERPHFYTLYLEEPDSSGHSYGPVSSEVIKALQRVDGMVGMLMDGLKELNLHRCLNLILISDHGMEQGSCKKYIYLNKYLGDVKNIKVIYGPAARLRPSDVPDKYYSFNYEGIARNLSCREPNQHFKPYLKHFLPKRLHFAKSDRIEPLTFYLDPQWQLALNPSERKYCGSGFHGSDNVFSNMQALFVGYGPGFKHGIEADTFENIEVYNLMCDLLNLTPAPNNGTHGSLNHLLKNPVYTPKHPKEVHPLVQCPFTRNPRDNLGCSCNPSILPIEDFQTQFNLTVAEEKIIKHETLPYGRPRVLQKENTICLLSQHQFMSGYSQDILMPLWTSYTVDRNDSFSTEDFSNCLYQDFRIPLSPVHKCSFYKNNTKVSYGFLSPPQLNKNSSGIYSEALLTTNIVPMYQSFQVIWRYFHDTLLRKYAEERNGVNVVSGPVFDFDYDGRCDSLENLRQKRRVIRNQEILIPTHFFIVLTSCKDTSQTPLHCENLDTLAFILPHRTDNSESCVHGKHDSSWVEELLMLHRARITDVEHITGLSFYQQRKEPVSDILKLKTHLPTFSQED
T2 sequence (P22413 whole entry, looked up, change not shown): as the sequence (P22413 whole entry, looked up) above

As usually defined, the IC50 is the concentration that gives 50% inhibition. Regarding `COc1ccc(NC(=O)CSc2nc3c(C)c(C#N)ncc3[nH]2)cc1S(C)(=O)=O` [Compound 103, 2-((6-cyano-7-methyl-3H-imidazo[4,5-c]pyridin-2-yl)thio)-N-(4-methoxy-3-(methylsulfonyl)phenyl)acetamide], in experiment [1] (setting [5]), the half-inhibitory concentration (IC50) was more than 50 µM.
As to `COc1nc(NC(=O)CSc2nc3c(C)c(C#N)ncc3[nH]2)ccc1O` [Compound 96, 2-((6-cyano-7-methyl-3H-imidazo[4,5-c]pyridin-2-yl)thio)-N-(5-hydroxy-6-methoxypyridin-2-yl)acetamide], in experiment [1] (setting [5]), the IC50 is more than 50 µM.
For the molecule `COc1ccc(NC(=O)c2cnc(CSc3nc4c(C)c(C#N)ncc4[nH]3)s2)cc1O` [Compound 115, sodium 5-(2-(((6-cyano-7-methyl-3H-imidazo[4,5-c]pyridin-2-yl)thio)methyl)thiazole-5-carboxamido)-2-methoxyphenolate], the IC50 in experiment [1] (setting [6]) is 1.61 µM; in experiment [1] (setting [5]), 1.61 µM; in experiment [2] (setting [7]) it was 0.191 µM; in experiment [2] (setting [8]), 0.196 µM.
With `COc1ccc(NC(=O)CSc2nc3c(C)c(C#N)ncc3[nH]2)cc1OP(=O)(O)O` [Compound 107, Sodium 5-(2-((6-cyano-7-methyl-3H-imidazo[4,5-c]pyridin-2-yl)thio)acetamido)-2-methoxyphenyl phosphate], the IC50 in experiment [1] (setting [6]) amounted to 0.232 µM; in experiment [1] (Table 5, TMP substrate, phosphate, read-out: ENPP1 (IC50 μM) TMP) it was 0.231 µM; in experiment [2] (setting [7]), 0.116 µM; in experiment [2] (Table 5, ATP substrate, phosphate, read-out: ENPP1 (IC50 μM) ATP), 0.116 µM.
Usually ΔTm stands for the change in melting temperature against a reference sample. Consider `COc1cc(NC(=O)CSc2nc3c(C)c(C#N)ncc3[nH]2)ccc1OP(=O)([O-])[O-].[Na+].[Na+]` [Compound 108, sodium 4-(2-((6-Cyano-7-methyl-3H-imidazo[4,5-c]pyridin-2-yl)thio)acetamido)-2-methoxyphenyl phosphate], for which, on ENPP1 protein [3] (Table 2, FIG. 7, 100 μM drug, 1.0 μg ENPP1, NT 60.05), the “Tm (° C.)” value came out at 63.60 °C. Also, the thermal shift (ΔTm) at 100 µM at ENPP1 protein [3] (read-out: ΔTm (° C.)) came out at 3.54 °C. Moreover, in the experiment with Saos-2 Cells (FIG. 9, mineralization components for 3 days), the total mineralization result is “significant decrease”. For the same molecule, the IC50 was 2.04 µM in experiment [1] (setting [6]), 2.04 µM in experiment [1] (setting [5]), 0.339 µM in experiment [2] (setting [7]) and 0.339 µM in experiment [2] (setting [8]).
In the case of `Cc1c(C#N)ncc2[nH]c(SCC(=O)Nc3ccc(F)c(OCCO)c3)nc12` [Compound 110, 2-((6-cyano-7-methyl-3H-imidazo[4,5-c]pyridin-2-yl)thio)-N-(4-fluoro-3-(2-hydroxyethoxy)phenyl)acetamide], the IC50 in experiment [1] (setting [5]) is more than 50 µM.
Consider `COc1ccc(NC(=O)CSc2nc3cc(C#N)ncc3[nH]2)cc1OC` [Compound 68, 2-((6-Cyano-3H-imidazo[4,5-c]pyridin-2-yl)thio)-N-(3,4-dimethoxyphenyl)acetamide], for which the “inhibiting the activity of ENPP1” value against ENPP1 protein [4] (FIG. 1) is listed as “effective”. Besides, the 50% inhibitory concentration (IC50) at ENPP1 protein [4] (Table 1, FIG. 1, read-out: IC50) was 114 nM. Moreover, the “inhibiting ENPP1 ability to produce mineralized nodules” value in the experiment on Saos-2 Cells (FIG. 4, normalized against DMSO control) is on record as “effective”.
Consider `COc1ccc(NC(=O)CSc2nc3c(C)c(C#N)ncc3[nH]2)cc1OCCO` [Compound 109, 2-((6-cyano-7-methyl-3H-imidazo[4,5-c]pyridin-2-yl)thio)-N-(3-(2-hydroxyethoxy)-4-methoxyphenyl)acetamide], for which the values for the IC50 in experiment [1] (setting [5]) and in experiment [2] (setting [8]) were 3.61 µM and 3.26 µM, respectively.
For the molecule `COc1ccc(NC(=O)CSc2nc3c(C)c(C#N)ncc3[nH]2)cc1N[C@H]1CC[C@H](N)CC1` [Compound 114, N-(3-(((1r,4r)-4-aminocyclohexyl)amino)-4-methoxyphenyl)-2-((6-cyano-7-methyl-3H-imidazo[4,5-c]pyridin-2-yl)thio)acetamide hydrogen chloride], the IC50 in experiment [1] (setting [5]) and in experiment [2] (setting [8]) was more than 50 µM throughout.
For `COc1ccc(NC(=O)CSc2nc3c(C)c(C#N)ncc3[nH]2)cc1O[C@H]1CC[C@H](N)CC1` [Compound 113, N-(3-(((1r,4r)-4-aminocyclohexyl)oxy)-4-methoxyphenyl)-2-((6-cyano-7-methyl-3H-imidazo[4,5-c]pyridin-2-yl)thio)acetamide Hydrochloride], the IC50 in experiment [1] (setting [5]) is 22.2 µM.
Still for that read-out and setting: the result for `COc1ccc(NC(=O)CSc2nc3c(C)c(C#N)ncc3[nH]2)cc1OCC1CCN(C)CC1` [Compound 111, 2-((6-cyano-7-methyl-3H-imidazo[4,5-c]pyridin-2-yl)thio)-N-(4-methoxy-3-((1-methylpiperidin-4-yl)methoxy)phenyl)acetamide hydrochloride] reads 22.3 µM.
As for `O=C(CSc1nc2cc(Cl)ncc2[nH]1)Nc1ccc2c(c1)OCO2` [Compound 7, N-(benzo[d][1,3]dioxol-5-yl)-2-((6-chloro-1H-imidazo[4,5-c]pyridin-2-yl)thio)acetamide], the half-maximal inhibitory concentration (IC50) at ENPP1 protein [4] (Tables 3 and 4, read-out: ENPP1 inhibition (IC50)) was more than 50000 nM.
With `Cc1c(C#N)ncc2[nH]c(SCC(=O)Nc3ccc(F)c(S(N)(=O)=O)c3)nc12` [Compound 104, 2-((6-cyano-7-methyl-3H-imidazo[4,5-c]pyridin-2-yl)thio)-N-(4-fluoro-3-sulfamoylphenyl)acetamide], the IC50 in experiment [1] (setting [5]) was determined as 2.85 µM.
Consider `COc1ccc(NC(=O)CSc2nc3c(C)c(C#N)ncc3[nH]2)cc1N1CCC(O)CC1` [Compound 112, 2-((6-cyano-7-methyl-3H-imidazo[4,5-c]pyridin-2-yl)thio)-N-(3-(4-hydroxypiperidin-1-yl)-4-methoxyphenyl)acetamide hydrochloride], for which the IC50 in experiment [1] (setting [5]) and in experiment [2] (setting [8]) was more than 50 µM each time.
